The values below come from patent publication US20040253243A1, “Aptamer therapeutics useful in ocular pharmacotherapy” (priority 2003, published 2004).

For series [1], the system named is retinal pigmented epithelial (RPE) cells. Put plainly: RPE cell migration with PDGF. Format: cell-based. To be noted: 100 ng/ml PDGF. The source says:
The graphs presented in FIG. 15E and 15F show the increasing effect of PDGF concentration on RPE cell migration.

Series [2] has as its target T1, human TGFβ2 (Homo sapiens, UniProt P61812).
T1 construct: two forms of mature TGFβ2 were generated, native and N-terminal his-tagged versions, in E. coli; made in house; host or cells: E. coli; added as soluble protein to MLEC
T1 sequence (P61812 303-414): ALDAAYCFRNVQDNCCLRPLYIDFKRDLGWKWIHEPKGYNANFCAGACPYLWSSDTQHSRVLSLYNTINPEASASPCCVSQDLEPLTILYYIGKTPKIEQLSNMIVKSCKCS
In words: MLEC proliferation assay (reversal of TGFβ2-mediated inhibition, BrdU). Format: cell-based. To be noted: for inhibition of the antiproliferative effects of TGFβ2: 50 pg/ml of TGFβ2, BrdU incorporation. The protocol:
(§1) MLECs were plated at 2,000 cells per well and incubated at 37° C. for 4 hours. Aptamer and TGFβ2 were added at the indicated concentrations for 16 hours at 37° C. Cell proliferation was measured using BrdU incorporation. BrdU assay was performed as recommended by the manufacturer (Roche Diagnostics).
(§2) MLEC Assay. The mink lung epithelial cell proliferation assay is performed over two days. On day 1:1) media is aspirated off from Mink Lung Epithelial Cells (MLEC); 2) the MLEC are washed with 10 ml 1×PBS; 3) 3 ml Trypsin is added and Trypsinize for 3 min at 37° C.; 4) quench with 10 ml 0.5% FBS media; 5) spin at 1000 rpm for 3.30 min; 6) aspirate off supernatant; 7) resuspend pellet in 10 ml 0.5% FBS media; 8) Count 10 μl cell suspension; 9) adjust cell density to 80,000 cells/ml; 10) add 50 μl of cells/well to black bottomed 96-well plates (4000 cells/well); pipet up and down during plating process to avoid settling of cells and uneven plating; 11) incubate cells at 37° C. in 5% CO2 for 4 hrs to allow adherence of cells; 12) add 25 μl of aptamer (or media, or other test reagent, such as for example, an antibody), preferably the outer wells are not used for treated cells; 13) add 25 μl of TGFβ2 (typically 25 pg/ml); and 14) incubate cells at 37° C. in 5% CO2 overnight.
(§3) On day 2:1) mix 20 μl BrdU with 2 ml 0.5% FBS media; 2) add 10 μl of BrdU mixture/well; 3) incubate cells at 37° C. in 5% CO2 for 3 hrs; 4) remove media and blot plates dry on paper towels; 5) add 200 μl/well FixDenat solution and incubate for 30 min at room temperature (RT); 6) remove FixDenat solution and blot plates dry on paper towels; 7) add 100 μl /well anti-BrdU POD solution and incubate for 90 min at RT; 8) remove anti-BrdU POD solution and blot plates dry on paper towels; 9) wash plates 3× with […] washing solution with 5 min RT incubations and blot plates dry on paper towels; 10) add 100 μl /well substrate solution and incubate for 3 min at RT in dark; and 11) read plates using PSP Luciferace 1 program on TopCount (Packard Bioscience Co., Downers Grove, Ill.).
A general note: Dividing cells build labelled thymidine or BrdU into new DNA.

The test system of series [3] is human TGFβ2. Described as above. In kind it is cell-based. To be noted: FIG. 6B. The protocol: as §1, §2, §3
Series [4] deals with N-terminal His tagged human TGFβ2. Put plainly: Nitrocellulose-filter binding to His-tagged TGFβ2. To be noted: FIG. 6C; read-out: binding affinity, N-terminal His tagged human TGFβ2. Here is the method:
A synthetic polynucleotide encoding full length human TGFβ2 mature protein was cloned into pRSET E. coli expression vector and transformed into BL21 (pLys) strain. The transformed cells were grown under conditions leading to TGFβ2 protein being expressed at high level and forming inclusion bodies. The inclusion bodies were purified and solubilized. The TGFβ2 was refolded and purified by S75 size exclusion chromatography (FIG. 4A). A His-tagged TGFβ2 was also generated by adding His6 plus 30 extra amino acids at the N terminus of TGFβ2. Mutations at positions 59 (S→T), 60 (R→K) and 94 (K→N), referred to herein as the S59T/R60K/K94N mutant, were introduced by site directed mutagenesis. Both the His-tagged and mutated TGFβ2 were expressed, refolded and purified using the same protocol as for wild type TGFβ2.
Dissociation constants for the binding of aptamers to purified human or rodent TGFβ-2 protein were determined by nitrocellulose-filter partitioning using ^32P-labeled RNA. […]
(§4) Nitrocellulose-filter partitioning was performed on Minifold® I, 96-well Dot-Blot manifolds (Schleicher & Schuell). Protein-bound aptamer and residual free aptamer were captured, respectively, on pre-wetted Protran nitrocellulose (Schleicher & Schuell) and Hybond-P polyvinylidene difluoride (Amersham Biosciences) filters by vacuum aspiration, and quantified by PhosphorImager (Amersham Biosciences). […]

In series [5] the target is T2, TGFβ2 (Homo sapiens, UniProt P61812).
T2 sequence (P61812 303-414 limits assumed): T1 sequence (P61812 303-414)
Put plainly: Nitrocellulose-filter partitioning binding of 32P-labeled aptamer to TGFβ-2 protein. More on the design: A synthetic polynucleotide encoding full length human TGFβ2 mature protein was cloned into pRSET E. coli expression vector; made in house. The protocol:
(§5) Dissociation constants for the binding of aptamers to purified human or rodent TGFβ-2 protein were determined by nitrocellulose-filter partitioning using ^32P-labeled RNA. In vitro transcribed RNA was treated with calf-intestinal alkaline phophatase (New England Biolabs) to remove 5′-triphosphates, then radio-labeled by incubation with γ-^32P-ATP and T4 polynucleotide kinase (New England Biolabs). Unincorporated label was removed by gel-filtration, and the RNAs were further purified by polyacrylamide gel electrophoresis (PAGE). Purified ^32P-labeled aptamer in water was refolded just prior to use by heating for 3 min at 95° C., followed by a 10 minute room-temperature incubation in binding buffer (50 mM Hepes, pH 7.4, 1 mM MgCl2, 1 mM CaCl2, 3 mM KCl, 140 mM NaCl, 0.1 mg/ml BSA, 0.01 mg/ml tRNA). The binding reactions (100 μL) were initiated by the addition of aptamer (≦0.1 nM) to excess TGFβ-2 protein (0.2-100 nM), followed by 10-30 minute equilibration at room temperature.
Nitrocellulose-filter partitioning was performed on Minifold® I, 96-well Dot-Blot manifolds (Schleicher & Schuell). Protein-bound aptamer and residual free aptamer were captured, respectively, on pre-wetted Protran nitrocellulose (Schleicher & Schuell) and Hybond-P polyvinylidene difluoride (Amersham Biosciences) filters by vacuum aspiration, and quantified by PhosphorImager (Amersham Biosciences). The proportion of protein-bound aptamer at each TGFβ-2 concentration was plotted as the ratio of counts-per-minute on the Protran nitrocellulose filter (CPMNC) to the sum of CPM on the Protran and Hybond-P filters (CPMtotal). Estimates of dissociation constants (KD) were obtained from a fit of the concentration of TGFβ-2 (i.e., [TGFβ-2])-dependent data to a standard binding isotherm: CPMNC/CPMtotal=Cmax/(1+KD/[TGFβ2]total), where Cmax equals the maximum observed value of CPMNC/CPMtotal at saturating [TGFβ-2], likely reflecting the proportion of properly-folded aptamer that is competent to recognize TGFβ-2.

The next series deals with T3, mouse (NTK) TGFβ2 (Homo sapiens, UniProt P61812, K396N/R362K/S361T).
T3 construct: A synthetic polynucleotide encoding full length human TGFβ2 mature protein was cloned into pRSET E. coli expression vector; made in house
T3 sequence (P61812 303-414 S361T/R362K/K396N): T1 sequence (P61812 303-414) with S59T, R60K, K94N
In words: Nitrocellulose-filter binding to mouse TGFβ2. To be noted: FIG. 6C; read-out: binding affinity, mouse (NTK) TGFβ2. Here is the method:
as §5, §4

Series [6] can be described thus: Pharmacokinetics via subconjunctival administration. In kind it is in vivo, mice. Here is the method:
A pharmacokinetic study was performed to determine the pharmacokinetics of ARC81, ARC117 and ARC119, TGFβ2 aptamers having the sequences of SEQ ID NOs:4, 9 and 11, respectively), via subconjunctival administration in mice. These aptamers were formulated at a concentration of 10 mg/ml. Samples were collected at 0, 0.5, 1, 2, 6, 12, 24, 48 and 96 hours post-administration. FIGS. 21A, 21B and 21C show the aqueous humor and/or plasma concentration of each aptamer (in nM) through 50 hours post dose via subconjunctival administration.

In series [7] the test system is TGFβ2 in rabbit aqueous humor. In words: Aqueous humor challenge assay (MLEC proliferation). In kind it is cell-based. The protocol:
MLEC Assay. The mink lung epithelial cell proliferation assay is performed over two days. […]
as §3
MLECs were plated at 2,000 cells per well and incubated at 37° C. for 4 hours. […] Cell proliferation was measured using BrdU incorporation. […]

Series [8] addresses T2, TGFβ2. In words: Dot blot binding of doped reselection aptamers to TGFβ2. To be noted: CW128_103. More on the design: For bio-chemical characterization of these aptamers, two forms of mature TGFβ2 were generated, native and N-terminal his-tagged versions, in E. coli. The protocol:
TGFβ2 was serially diluted in DPBS containing 0.2 mg/ml BSA and 0.2 mg/ml tRNA. ^32P-labeled RNA (<20 pM) were incubated with TGFβ2 at room temperature for 30 min. Samples were pipetted with a multichannel pippetor onto a multiwell manifold holding layers of pre-wetted 0.45 micron nitrocellulose, hybond membrane, 3MM filter paper (the order is from top to bottom), aspirated, and washed 3× with DPBS (containing tRNA). All three filters were air dried, exposed to phosphorimager plate, analyzed by ImageQuant.

Setting [9] is: 32P-labeled aptamer, nitrocellulose-filter partitioning, fit to Equation 1, read-out: Kd.
[10] abbreviates: Aq Humour, subconjunctival, 1 mg/eye bilaterally.
Setting [11] is: PLASMA, subconjunctival, 1 mg/eye bilaterally.
[12] abbreviates: after subconjunctival administration.

Positions count from the first letter of the chain named. Marks after values point to notes of the source that are not given here. {3T} = T cap written 3T / [3'T]; {NH2} = amine group; m = 2'-O-methyl; r = 2'-OH (RNA); f = 2'-fluoro Some results are limits rather than exact numbers.

Consider “5′-[PEG40K]-NH2-dCdAdGfCmGfUdAfCmG-PEG-dCdGTdAdCdCmGdATfUfCmA-PEG-TdGdAdAdGfCfUmG-3T-3′ [ARC128, reference compound]”, for which the “blocking of RPE cell migration” value in series [1] was “has no activity”.
One may read the IC50 as the concentration that gives 50% inhibition. As to “5′-GGAGGfUfUAfUfUAfCAGAGfUfCfUGfUAfUAGfCfUGfUAfCfUfCfC-3T-3′ (GGAGGUUAUUACAGAGUCUGUAUAGCUGUACUCC; 2'-fluoro at CU, RNA at AG, 3' {3T}, backbone not given here) [ARC77]”, the “inhibition of the antiproliferative effects of TGFβ2” value with human TGFβ2 [2] is “inhibit the antiproliferative effects of 50 pg/ml of TGFβ2”. The IC50 with human TGFβ2 [2] (read-out: cell IC50) is 10 nM. Moreover, the “potency against human versus rodent form of TGFβ2” value in the series with human TGFβ2 [3] was “more potent against the human form of TGFβ2 than the rodent version”. Further, the Kd in [4] is no less than 500 nM; in the series with TGFβ2 [5] (setting [9]) it was 3.6 nM; in the series with TGFβ2 [5] (FIG. 6C, read-out: binding affinity, human wild type (WT) TGFβ2), 2.5 ± 0.3 nM; with TGFβ2 [5] (read-out: KD), 1 nM; in the series with mouse (NTK) TGFβ2, 80 ± 5 nM.
With “5′-NH2-mGmGmGmGfUfUAfUfUmAfCmAmGmAmGfUfCfUGfUAfUAmGfCfUmGfUmAfCfCfC-3T-3′ (GGGGUUAUUACAGAGUCUGUAUAGCUGUACCC; sugars from the 5' end mmmmffrffmfmmmmfffrfrfrmffmfmfff, 5' {NH2}, 3' {3T}, backbone not given here) [ARC81]”, in the series with human TGFβ2 [2], the “inhibition of the antiproliferative effects of TGFβ2” value is on record as “inhibit the antiproliferative effects of 50 pg/ml of TGFβ2”. In the series with TGFβ2 [5] (setting [9]), the Kd stood at 5.1 nM. In [6] (setting [10]), the “AUC (0-t)” value is 36.0 nM·h, the Cmax was 5.19 nM, the MRT was 6.03* h and the TLAST is given as 12 h. The substance also gave a tmax in series [6] (setting [10]) of 6 h. In [6] (setting [11]), the “AUC (0-t)” value stood at 29.8 nM·h, the Cmax was found to be 6.44 nM, the MRT stood at 3.13 h and the TLAST was 12 h. Moreover, in [6] (setting [11]), the Vd is recorded as 21079 mL, the t1/2 was 2.42 h and the tmax came to 1 h. In series [6] (setting [12]), the “detection in the aqueous humor” value is listed as “detected in the aqueous humor” and the “time to enter systemic circulation” value was “less than 0.5 hour”. In addition, in [7] (1.5% rabbit aqueous humor), the “rescue of rabbit aqueous humor-mediated inhibition of MLEC proliferation” value is recorded as “rescued rabbit aqueous humor-mediated inhibition of MLEC proliferation in a dose dependent manner”. For the same substance, the “inhibition of antiproliferative effects of rabbit aqueous humor” value in series [7] (low concentrations of rabbit aqueous humor (e.g., <10%), 1000 nM ARC81) is reported as “inhibited the antiproliferative effects of low concentrations of rabbit aqueous humor”.
On to “AfUAGAGfCAfUfUAfUAGAGfUAfUGfUAfUAGfCfUAfUAfCfUAfU[3T] (AUAGAGCAUUAUAGAGUAUGUAUAGCUAUACUAU; 2'-fluoro at CU, RNA at AG, 3' {3T}, backbone not given here) [CW128.10.F, minimized AMX(71)_C11]”, for which, in the series with TGFβ2 [8], the Kd was found to be 3.66 nM.
